From ChEMBL document CHEMBL3758163, “Extended structure-activity study of thienopyrimidine-based EGFR inhibitors with evaluation of drug-like properties” (Eur J Med Chem, 2016)
≈ marks a conversion by molar mass, not a printed value. Each block holds one compound with its values, some of them ahead of it.

Experiments:
[1] = molecular target: Protein kinase C theta type (Homo sapiens) (UniProt Q04759); assay: Inhibition of PRKCQ (unknown origin) at 500 nM
[2] = molecular target: cAMP-dependent protein kinase catalytic subunit alpha (Homo sapiens) (UniProt P17612); assay: Inhibition of PRKACA (unknown origin) at 500 nM
[3] = molecular target: Serine/threonine-protein kinase pim-2 (Homo sapiens) (UniProt Q9P1W9); assay: Inhibition of PIM2 (unknown origin) at 500 nM
Sequence of Serine/threonine-protein kinase pim-2 (Homo sapiens) (Q9P1W9 whole entry, looked up): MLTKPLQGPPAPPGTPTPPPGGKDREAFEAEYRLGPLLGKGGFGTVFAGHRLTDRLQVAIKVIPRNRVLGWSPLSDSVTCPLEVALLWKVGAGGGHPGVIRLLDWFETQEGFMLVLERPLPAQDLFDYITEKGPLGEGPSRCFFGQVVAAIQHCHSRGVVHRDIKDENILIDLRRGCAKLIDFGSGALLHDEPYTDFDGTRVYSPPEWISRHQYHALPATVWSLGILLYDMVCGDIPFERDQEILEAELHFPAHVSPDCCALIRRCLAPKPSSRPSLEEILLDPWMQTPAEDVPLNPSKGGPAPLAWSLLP

[4] = molecular target: T1, Serine/threonine-protein kinase Nek1 (Homo sapiens) (UniProt Q96PY6); assay: Inhibition of NEK1 (unknown origin) at 500 nM
T1 sequence (whole entry): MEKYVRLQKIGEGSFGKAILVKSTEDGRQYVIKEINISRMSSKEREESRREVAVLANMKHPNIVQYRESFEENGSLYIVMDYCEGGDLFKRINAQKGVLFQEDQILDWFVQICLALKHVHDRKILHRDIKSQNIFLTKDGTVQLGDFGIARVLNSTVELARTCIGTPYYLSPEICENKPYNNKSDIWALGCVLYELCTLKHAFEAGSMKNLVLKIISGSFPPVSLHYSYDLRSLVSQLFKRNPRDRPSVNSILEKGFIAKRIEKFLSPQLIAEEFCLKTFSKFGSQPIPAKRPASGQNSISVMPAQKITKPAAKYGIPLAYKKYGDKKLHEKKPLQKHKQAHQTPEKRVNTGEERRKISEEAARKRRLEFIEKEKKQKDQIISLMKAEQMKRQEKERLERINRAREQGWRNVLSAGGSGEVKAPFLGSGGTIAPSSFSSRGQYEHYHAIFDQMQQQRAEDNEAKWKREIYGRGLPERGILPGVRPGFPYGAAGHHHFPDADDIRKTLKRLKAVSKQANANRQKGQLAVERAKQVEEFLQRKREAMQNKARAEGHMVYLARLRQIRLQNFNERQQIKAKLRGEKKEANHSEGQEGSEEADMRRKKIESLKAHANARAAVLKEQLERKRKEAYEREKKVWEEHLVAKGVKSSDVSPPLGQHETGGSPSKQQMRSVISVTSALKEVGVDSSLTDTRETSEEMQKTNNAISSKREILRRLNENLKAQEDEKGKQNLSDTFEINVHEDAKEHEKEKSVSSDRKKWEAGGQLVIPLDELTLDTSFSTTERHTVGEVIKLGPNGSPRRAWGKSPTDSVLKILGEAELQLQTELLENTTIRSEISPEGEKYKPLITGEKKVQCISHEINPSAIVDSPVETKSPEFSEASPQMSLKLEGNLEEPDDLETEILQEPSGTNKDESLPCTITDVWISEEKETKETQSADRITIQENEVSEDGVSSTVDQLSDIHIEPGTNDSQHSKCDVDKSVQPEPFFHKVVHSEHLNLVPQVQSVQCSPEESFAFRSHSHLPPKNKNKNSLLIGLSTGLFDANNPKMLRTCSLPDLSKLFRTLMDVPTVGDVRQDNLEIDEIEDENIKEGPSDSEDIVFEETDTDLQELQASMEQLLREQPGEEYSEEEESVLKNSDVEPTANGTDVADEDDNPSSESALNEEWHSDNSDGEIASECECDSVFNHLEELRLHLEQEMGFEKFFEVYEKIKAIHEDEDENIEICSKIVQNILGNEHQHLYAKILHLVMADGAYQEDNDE

[5] = Toxicity in zebrafish embryo assessed as morphological defects for 3.5 days; assay type: organism-based, Danio rerio
Danio rerio [6] = species: Danio rerio; assay: Toxicity in zebrafish embryo assessed as kinked tails at 50 and 100 uM; assay type: organism-based; details: in vivo
Danio rerio [7] = species: Danio rerio; assay: Toxicity in zebrafish embryo assessed as effect on morphology upto 25 uM; assay type: organism-based; details: in vivo
[8] = Toxicity in zebrafish embryo assessed as survival for 3.5 days; assay type: organism-based, Danio rerio; details: in vivo
[9] = Aqueous solubility of compound in 0.01 M PBS buffer at pH 7.4 after 2 hrs by turbidimetric assay; assay type: physicochemical
[10] = Antiproliferative activity against human Hs578T cells after 72 hrs by CellTiter-Glo assay; assay type: functional, cell-based; details: Hs-578T
MRC5 = assay: Antiproliferative activity against human MRC5 cells after 72 hrs by CellTiter-Glo assay; assay type: cell-based; details: MRC5, 72 h
[11] = Antiproliferative activity against human U937 cells after 72 hrs by CellTiter blue assay; assay type: functional, cell-based; details: U-937, 72 h
[12] = Antiproliferative activity against human PC9 cells after 96 hrs by Sytox green marker based fluorescence analysis; assay type: functional, cell-based; details: PC-9, 96 h
[13] = Antiproliferative activity against human SKBR3 cells after 72 hrs by CellTiter blue assay; assay type: functional, cell-based; details: SK-BR-3, 72 h
SW480 = assay: Antiproliferative activity against human SW480 cells after 72 hrs by CellTiter-Glo assay; assay type: functional, cell-based; details: SW480, 72 h
H9 = assay: Antiproliferative activity against human H9 cells after 72 hrs by CellTiter-Glo assay; assay type: functional, cell-based; details: H9, 72 h
[14] = Antiproliferative activity against human Calu3 cells after 72 hrs by CellTiter blue assay; assay type: functional, cell-based; details: Calu-3, 72 h
FaDu = assay: Antiproliferative activity against human FADU cells; assay type: functional, cell-based
[15] = Antiproliferative activity against human BT474 cells after 72 hrs by CellTiter blue assay; assay type: functional, cell-based; details: BT-474, 72 h
[16] = Antiproliferative activity against human OVCAR3 cells after 72 hrs by CellTiter-Glo assay; assay type: functional, cell-based; details: OVCAR-3, 72 h
in vitro = details: human, Caco-2
Description: Efflux ratio of permeability from basolateral to apical side over apical to basolateral side in human Caco2 cells at 10 uM by LC-MS/MS analysis

Sequence of Protein kinase C theta type (Homo sapiens) (Q04759 whole entry, looked up): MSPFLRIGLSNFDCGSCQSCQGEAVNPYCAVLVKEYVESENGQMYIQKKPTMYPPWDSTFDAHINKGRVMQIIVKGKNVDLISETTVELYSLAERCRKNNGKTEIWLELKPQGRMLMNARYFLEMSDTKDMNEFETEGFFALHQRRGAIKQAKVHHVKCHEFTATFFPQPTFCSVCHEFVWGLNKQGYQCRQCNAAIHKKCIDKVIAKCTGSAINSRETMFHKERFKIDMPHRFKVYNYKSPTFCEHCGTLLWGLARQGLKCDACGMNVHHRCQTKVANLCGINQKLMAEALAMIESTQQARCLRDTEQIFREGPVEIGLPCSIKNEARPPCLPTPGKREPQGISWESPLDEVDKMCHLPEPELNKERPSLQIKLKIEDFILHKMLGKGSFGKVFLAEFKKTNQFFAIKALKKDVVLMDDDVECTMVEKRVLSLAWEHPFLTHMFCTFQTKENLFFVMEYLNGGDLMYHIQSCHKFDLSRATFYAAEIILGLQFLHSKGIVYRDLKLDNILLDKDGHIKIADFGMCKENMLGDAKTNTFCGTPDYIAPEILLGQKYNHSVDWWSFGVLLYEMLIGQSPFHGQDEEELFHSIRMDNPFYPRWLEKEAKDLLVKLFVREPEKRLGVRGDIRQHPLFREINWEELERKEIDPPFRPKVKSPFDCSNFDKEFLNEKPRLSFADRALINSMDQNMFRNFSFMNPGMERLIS

Structure (SMILES): COc1cc(C(N)=O)ccc1-c1cc2c(N[C@H](CO)c3ccccc3)ncnc2s1
inhibition [1]: -2%
inhibition [2]: -5%
inhibition [3]: 11%
EC50 at 3.5 days [5]: 46 µM
Activity (Danio rerio [6]): Toxic
Activity (Danio rerio [7]): Non-toxic
LC50 at 84 h [8]: > 100 µM
inhibition [4]: 3%

Structure (SMILES): C[C@@H](Nc1ncnc2sc(-c3ccc(C(=O)NCCN(C)C)cc3)cc12)c1ccccc1
inhibition [1]: -5%
inhibition [2]: -6%
inhibition [3]: 3%
inhibition [4]: 4%

Structure (SMILES): COc1cc(CO)ccc1-c1cc2c(N[C@H](CO)c3ccccc3)ncnc2s1
IC50 [10]: 43 µM
IC50 (MRC5): 37 µM
IC50 [11]: 18 µM
IC50 [12]: 0.09 µM
inhibition [1]: 1%
IC50 [13]: 17 µM
inhibition [2]: 1%
inhibition [3]: 1%
IC50 (SW480): 19 µM
IC50 (H9): 12 µM
EC50 at 3.5 days [5]: 49 µM
Activity (Danio rerio [6]): Toxic
Activity (Danio rerio [7]): Non-toxic
IC50 [14]: 4.2 µM
LC50 at 84 h [8]: > 100 µM
IC50 (FaDu): 43 µM
IC50 [15]: 11 µM
inhibition [4]: 13%
IC50 [16]: 9.7 µM

Structure (SMILES): C[C@@H](Nc1ncnc2sc(-c3ccccc3C(N)=O)cc12)c1ccccc1
inhibition [1]: -1%
inhibition [2]: -8%
inhibition [3]: 0%
inhibition [4]: 3%

Structure (SMILES): CN(C)CCNC(=O)c1ccc(-c2cc3c(N[C@H](CO)c4ccccc4)ncnc3s2)cc1
inhibition [1]: 12%
efflux ratio at 10 µM (in vitro): > 20
inhibition [2]: -5%
inhibition [3]: 1%
solubility kinetic at 2 h [9]: 65 µM (≈ 30 µg/mL)

Structure (SMILES): COc1ccc(C(=O)NCCN(C)C)cc1-c1cc2c(N[C@H](C)c3ccccc3)ncnc2s1
inhibition [1]: 0%
efflux ratio at 10 µM (in vitro): 63
inhibition [2]: 9%
inhibition [3]: -4%
solubility kinetic at 2 h [9]: > 100 µM
inhibition [4]: -4%

Structure (SMILES): C#Cc1cccc(Nc2ncnc3cc(OCCOC)c(OCCOC)cc23)c1 [ERLOTINIB]
IC50 [10]: > 100 µM
IC50 (MRC5): 5.8 µM
IC50 [11]: 9.9 µM
IC50 [12]: 0.07 µM
inhibition [1]: -4%
IC50 [13]: > 100 µM
inhibition [2]: -10%
IC50 (SW480): > 100 µM
IC50 (H9): 1.3 µM
EC50 at 3.5 days [5]: 60 µM
Activity (Danio rerio [6]): Toxic
Activity (Danio rerio [7]): Non-toxic
solubility kinetic at 2 h [9]: 20 µM (≈ 7.87 µg/mL)
IC50 [14]: 4.7 µM
IC50 (FaDu): 18 µM
IC50 [15]: 13 µM
inhibition [4]: -8%
IC50 [16]: 4.6 µM

Second part, the compound after the results:

inhibition [1]: -5%
inhibition [2]: -1%
inhibition [3]: 11%
inhibition [4]: -6%
Structure (SMILES): C#Cc1cccc(Nc2ncnc3sc(-c4ccc(CO)cc4OC)cc23)c1

inhibition [1]: 3%
inhibition [2]: 8%
inhibition [3]: 6%
solubility kinetic at 2 h [9]: 2 µM (≈ 0.832 µg/mL)
Structure (SMILES): COc1cc(CO)ccc1-c1cc2c(Nc3ccc(F)c(Cl)c3)ncnc2s1

inhibition [1]: 1%
inhibition [2]: 2%
inhibition [3]: 1%
inhibition [4]: 1%
Structure (SMILES): COc1cc(CO)ccc1-c1cc2c(N[C@H](C)c3ccccc3)ncnc2s1

inhibition [1]: -10%
inhibition [2]: 2%
inhibition [3]: 5%
inhibition [4]: -5%
Structure (SMILES): COc1cc(CO)ccc1-c1cc2c(Nc3ccccc3)ncnc2s1
